One test addresses T1, human TLR7 (Homo sapiens, UniProt Q9NYK1).
T1 construct: host or cells: HEK-Blue TLR7 cells (engineered human embryonic kidney cells)
T1 sequence (Q9NYK1 27-1049): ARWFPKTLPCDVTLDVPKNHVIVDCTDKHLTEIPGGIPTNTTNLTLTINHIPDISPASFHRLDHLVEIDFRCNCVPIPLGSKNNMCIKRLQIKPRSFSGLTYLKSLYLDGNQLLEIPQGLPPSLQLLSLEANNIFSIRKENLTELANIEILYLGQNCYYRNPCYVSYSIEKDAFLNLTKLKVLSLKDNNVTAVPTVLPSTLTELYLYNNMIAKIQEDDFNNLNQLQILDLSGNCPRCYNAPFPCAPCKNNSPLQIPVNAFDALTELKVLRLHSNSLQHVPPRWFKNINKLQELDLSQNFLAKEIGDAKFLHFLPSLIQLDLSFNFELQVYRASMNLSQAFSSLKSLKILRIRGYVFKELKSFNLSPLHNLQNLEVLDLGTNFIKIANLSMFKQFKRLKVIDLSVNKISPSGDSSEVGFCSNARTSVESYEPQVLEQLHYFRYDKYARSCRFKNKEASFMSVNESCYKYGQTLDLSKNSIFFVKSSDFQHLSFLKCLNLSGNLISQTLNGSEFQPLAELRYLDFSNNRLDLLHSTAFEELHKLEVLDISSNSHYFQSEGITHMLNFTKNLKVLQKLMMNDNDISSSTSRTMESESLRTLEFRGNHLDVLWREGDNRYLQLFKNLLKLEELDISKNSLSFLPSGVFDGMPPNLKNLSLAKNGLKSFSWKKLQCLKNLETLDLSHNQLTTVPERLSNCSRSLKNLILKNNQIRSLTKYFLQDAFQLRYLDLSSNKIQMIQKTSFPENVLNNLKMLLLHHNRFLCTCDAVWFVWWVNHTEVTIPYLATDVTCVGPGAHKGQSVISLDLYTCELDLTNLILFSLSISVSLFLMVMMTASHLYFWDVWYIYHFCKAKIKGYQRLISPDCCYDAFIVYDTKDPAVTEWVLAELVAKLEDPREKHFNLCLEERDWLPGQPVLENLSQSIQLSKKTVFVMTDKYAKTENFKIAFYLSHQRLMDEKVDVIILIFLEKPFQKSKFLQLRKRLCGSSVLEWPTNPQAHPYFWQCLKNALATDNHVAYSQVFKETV
Put plainly: Human TLR7 agonist activity (hTLR7 reporter) assay in HEK-Blue TLR7 cells, SEAP readout. Conditions: 18 h treatment, average where assay repeated. The format is cell-based. On the procedure:
This procedure describes a method for assaying human TLR7 (hTLR7) agonist activity of the compounds disclosed in this specification.
HEK-Blue™ TLR7 cells were added to each well of a 384-well tissue-culture plate (15,000 cells per well) and incubated 16-18 h at 37° C., 5% CO2. Compounds (100 nl) were dispensed into wells containing the HEK-Blue™ TLR cells and the treated cells were incubated at 37° C., 5% CO2. After 18 h treatment ten microliters of freshly-prepared Quanti-Blue™ reagent (Invivogen) was added to each well, incubated for 30 min (37° C., 5% CO2) and SEAP levels measured using an Envision plate reader (OD=620 nm). The half maximal effective concentration values (EC50; compound concentration which induced a response halfway between the assay baseline and maximum) were calculated.

For test [1], the system named is CD69 in human whole blood. Put plainly: Induction of CD69 in human whole blood (hWB). The class given is cell-based. Conditions: heparinized human whole blood, 17 h, CD69 surface staining; 100% set to 1 uM resiquimod; average where assay repeated. On the procedure: The induction of Type I interferon (IFN) MX-1 genes and the B-cell activation marker CD69 are downstream events that occur upon activation of the TLR7 pathway. The following is a human whole blood assay that measures their induction in response to a TLR7 agonist.
Heparinized human whole blood was harvested from human subjects and treated with test TLR7 agonist compounds at 1 mM. The blood was diluted with RPMI 1640 media and Echo was used to predot 10 nL per well giving a final concentration of 1 uM (10 nL in 10 uL of blood). After mixing on a shaker for 30 sec, the plates were covered and placed in a 37° C. chamber for o/n=17 hrs. Fixing/lysis buffer was prepared (5×->1×in H2O, warm at 37° C.; Cat# BD 558049) and kept the perm buffer (on ice) for later use.
For surface markers staining (CD69): prepared surface Abs: 0.045 ul hCD14-FITC (ThermoFisher Cat # MHCD1401)+0.6 ul hCD19-ef450 (ThermoFisher Cat #48-0198-42)+1.5 ul hCD69-PE (cat# BD555531)+0.855 ul FACS buffer. Added 3 ul/well, spin1000 rpm for 1 min and mixed on shaker for 30 sec, put on ice for 30 mins. Stop stimulation after 30 minutes with 70 uL of prewarmed 1×fix/lysis buffer and use Feliex mate to resuspend (15 times, change tips for each plate) and incubate at 37° C. for 10 minutes.
Centrifuge at 2000 rpm for 5 minutes aspirate with HCS plate washer, mix on shaker for 30 sec and then wash with 70 uL in dPBS and pelleted 2 xs (2000 rpm for 5 min) and 50 ul wash in FACS buffer pelleted 1 xs(2000 rpm for 5 min). Mix on shaker for 30 sec. For Intracellular markers staining (MX-1): Add 50 ul of BD Perm buffer III and mix on shaker for 30 sec. Incubate on ice for 30 minutes (in the dark). Wash with 50 uL of FACS buffer 2×(spin @2300 rpm×5 min after perm) followed by mixing on shaker for 30 sec. Resuspended in 20 ul of FACS buffer containing MX1 antibody ( )(4812)-Alexa 647: Novus Biologicals #NBP2-43704AF647) 20 ul FACS bf+0.8 ul hlgG+0.04 ul MX-1. Spin 1000 rpm for 1 min, mix on shaker for 30 se and the samples were incubated at RT in the dark for 45 minutes followed by washing 2×FACS buffer (spin @2300 rpm×5 min after perm). Resuspend 20 ul (35 uL total per well) of FACS buffer and cover with foil and place in 4° C. to read the following day. Plates were read on iQuePlus. The results were loaded into toolset and […] curves are generated in curve master. The y-axis 100% is set to 1 uM of resiquimod.

On to `COc1cc(CN2C[C@H]3CNC[C@H]3C2)ccc1Cn1ncc2nc(N)nc(NCC3CC4(CC4)C3)c21` [Compound 169], for which the figures for the EC50 (on human TLR7; in test [1]) were 28 nM and 4.5 nM, respectively.
For `COc1cc(CNCCO)ccc1Cn1ncc2nc(N)nc(NCC3CC4(CC4)C3)c21` [Compound 170] the same measures were 18.5 nM and 2.1 nM.
For `COc1cc(C(=O)N2CCNCC2)ccc1Cn1ncc2nc(N)nc(NCC3CC4(CC4)C3)c21` [Compound 171] the same measures were 17 nM and 2.8 nM.
For `COc1cc(C(=O)N2CC3(CNC3)C2)ccc1Cn1ncc2nc(N)nc(NCC3CC4(CC4)C3)c21` [Compound 172] the same measures were 785 nM and 300 nM.
For `COc1cc(C(=O)N2CC3(CN(C)C3)C2)ccc1Cn1ncc2nc(N)nc(NCC3CC4(CC4)C3)c21` [Compound 173], the EC50 was 20.9 nM on human TLR7 and 5.4 nM in test [1].
For `COc1cc(C(=O)N2CC3(COC3)C2)ccc1Cn1ncc2nc(N)nc(NCC3CC4(CC4)C3)c21` [Compound 174] the same measures were 93.1 nM and 934 nM.
For `COc1cc(C(=O)N2C[C@H]3CNC[C@H]3C2)ccc1Cn1ncc2nc(N)nc(NCC3CC4(CC4)C3)c21` [Compound 175] the same measures were 96.5 nM and 48.8 nM.
Regarding `COc1cc(C(=O)N2C[C@H]3CN(C)C[C@H]3C2)ccc1Cn1ncc2nc(N)nc(NCC3CC4(CC4)C3)c21` [Compound 176], the EC50 at human TLR7 was found to be 10.8 nM; in test [1], 3.6 nM.
For `COc1cc(C(=O)N[C@H]2C[C@H](O)C2)ccc1Cn1ncc2nc(N)nc(NCC3CC4(CC4)C3)c21` [Compound 177] the same measures were 579 nM and 359 nM.
For `COc1cc(C(=O)N2C[C@@H]3C[C@H]2CN3)ccc1Cn1ncc2nc(N)nc(NCC3CC4(CC4)C3)c21` [Compound 178] the same measures were 365 nM and 156 nM.
Consider `COc1cc(C(=O)N2C[C@@H]3C[C@H]2CN3C)ccc1Cn1ncc2nc(N)nc(NCC3CC4(CC4)C3)c21` [Compound 179], for which the results for the EC50 (on human TLR7; in test [1]) were 36.5 nM and 13.1 nM, respectively.
For `COc1cc(C(=O)N2CC3(CNC3)C2)ccc1Cn1ncc2nc(N)nc(NCC3CC4(CCC4)C3)c21` [Compound 180] the same measures were 728 nM and 363 nM.
For `COc1cc(C(=O)N2C[C@@H]3C[C@H]2CN3)ccc1Cn1ncc2nc(N)nc(NCC3CC4(CCC4)C3)c21` [Compound 181] the same measures were 254 nM and 110 nM.
For `COc1cc(C(=O)N2C[C@H]3CNC[C@H]3C2)ccc1Cn1ncc2nc(N)nc(NCC3CC4(CCC4)C3)c21` [Compound 182] the same measures were 394 nM and 202 nM.
With `COc1cc(CN2CCN(CCO)CC2)ccc1Cn1ncc2nc(N)nc(NCC3CC4(CC4)C3)c21` [Compound 183], the figures for the EC50 (at human TLR7; in test [1]) were 31.5 nM and 48.5 nM, respectively.
For `COc1cc(C(=O)N2CCN(CCO)CC2)ccc1Cn1ncc2nc(N)nc(NCC3CC4(CC4)C3)c21` [Compound 184] the same measures were 67.5 nM and 110 nM.
For `COc1cc(CN2CCN(CCO)CC2)ccc1Cn1ncc2nc(N)nc(NCC3CC4(C3)CC(F)(F)C4)c21` [Compound 185] the same measures were 482 nM and 117 nM.
For `COc1cc(CN(C)C)ccc1Cn1ncc2nc(N)nc(NCC3CC4(C3)CC(F)(F)C4)c21` [Compound 186] the same measures were 950 nM and 783 nM.
Turning to `COc1cc(C(=O)N2CC3(CN(C)C3)C2)ccc1Cn1ncc2nc(N)nc(NCC3CC4(C3)CC(F)(F)C4)c21` [Compound 187], the EC50 at human TLR7 came out at 2310 nM; in test [1] it was 420 nM.
For `COc1cc(C(=O)N2C[C@H]3CN(C)C[C@H]3C2)ccc1Cn1ncc2nc(N)nc(NCC3CC4(C3)CC(F)(F)C4)c21` [Compound 188] the same measures were 810 nM and 493 nM.
For `COc1cc(C(=O)N2C[C@H]3C[C@@H]2CN3C)ccc1Cn1ncc2nc(N)nc(NCC3CC4(C3)CC(F)(F)C4)c21` [Compound 189] the same measures were 780 nM and 1000 nM.
For `COc1cc(C(=O)NC2CN(C)C2)ccc1Cn1ncc2nc(N)nc(NCC3CC4(CC4)C3)c21` [Compound 190] the same measures were 315 nM and 168 nM.
Take `COc1cc(C(=O)N[C@H]2CCN(C)C2)ccc1Cn1ncc2nc(N)nc(NCC3CC4(CC4)C3)c21` [Compound 192]: the results for the EC50 (at human TLR7; in test [1]) were 47.3 nM and 21.9 nM, respectively.
For `COc1cc(C(=O)N[C@@H]2CCN(C)C2)ccc1Cn1ncc2nc(N)nc(NCC3CC4(CC4)C3)c21` [Compound 193] the same measures were 48.1 nM and 15.2 nM.
For `COc1cc(C(=O)NC2CCN(C(C)C)CC2)ccc1Cn1ncc2nc(N)nc(NCC3CC4(CC4)C3)c21` [Compound 194] the same measures were 104 nM and 101 nM.
Regarding `COc1cc(C(=O)NC2CCN(C3CC3)CC2)ccc1Cn1ncc2nc(N)nc(NCC3CC4(CC4)C3)c21` [Compound 195], the values for the 50% effective concentration (EC50) (on human TLR7; in test [1]) were 193 nM and 411 nM, respectively.
For `CCCN1CCC(NC(=O)c2ccc(Cn3ncc4nc(N)nc(NCC5CC6(CC6)C5)c43)c(OC)c2)CC1` [Compound 197] the same measures were 32.6 nM and 35.5 nM.
Take `COc1cc(C(=O)NC2CCN(C)CC2)ccc1Cn1ncc2nc(N)nc(NCC3CC4(CC4)C3)c21` [Compound 198]: the EC50 turned out to be 90.3 nM at human TLR7 and 60.6 nM in test [1].
Consider `COc1cc(C(=O)N2CC3(CN(C)C3)C2)ccc1Cn1ncc2nc(N)nc(NCC3CC4(CCC4)C3)c21` [Compound 200], for which the EC50 on human TLR7 was 124 nM; in test [1] it was 130 nM.
For `COc1cc(C(=O)NC2CC3(C2)CN(C)C3)ccc1Cn1ncc2nc(N)nc(NCC3CC4(CC4)C3)c21` (centres unmarked) [Compound 201] the same measures were 842 nM and 206 nM.
For `COc1cc(C(=O)NC2CN(C)C2)ccc1Cn1ncc2nc(N)nc(NCC3CC4(CCC4)C3)c21` [Compound 205] the same measures were 328 nM and 314 nM.

For the origin of these results see patent US20230122249A1, “1H-PYRAZOLO[4,3-d]PYRIMIDINE COMPOUNDS AS TOLL-LIKE RECEPTOR 7 (TLR7) AGONISTS” (BRISTOL-MYERS SQUIBB COMPANY, priority 2020, published 2023).
